Experiments:
Test in all cases: KINOMEscan competition binding
Conditions in all cases: compound 10.0 µM
STK32B (human) = STK32B (human) (UniProt Q9NY57)
MAPK6 (human) = MAPK6 (human) (UniProt Q16659)
[1] = molecular target: TYK2 JH2 pseudokinase (human) (UniProt P29597)
RPS6KA4 KD2 (human) = RPS6KA4 KD2 (human) (UniProt O75676)
NTRK3 (human) = NTRK3 (human) (UniProt Q16288)
TESK1 (human) = TESK1 (human) (UniProt Q15569)
PIP5K1A (human) = PIP5K1A (human) (UniProt Q99755)
RIPK4 (human) = RIPK4 (human) (UniProt P57078)
MAP2K4 (human) = MAP2K4 (human) (UniProt P45985)
EPHB3 (human) = EPHB3 (human) (UniProt P54753)
FGFR4 (human) = FGFR4 (human) (UniProt P22455)
ROCK2 (human) = ROCK2 (human) (UniProt O75116)
AURKA (human) = AURKA (human) (UniProt O14965)
CSK (human) = CSK (human) (UniProt P41240)
MAP4K4 (human) = MAP4K4 (human) (UniProt O95819)
MYO3B (human) = MYO3B (human) (UniProt Q8WXR4)
PDGFRA (human) = PDGFRA (human) (UniProt P16234)
RPS6KA5 KD2 (human) = RPS6KA5 KD2 (human) (UniProt O75582)
MAP4K3 (human) = MAP4K3 (human) (UniProt Q8IVH8)
KDR (human) = KDR (human) (UniProt P35968)
PRKCQ (human) = PRKCQ (human) (UniProt Q04759)
MAP3K12 (human) = MAP3K12 (human) (UniProt Q12852)
RPS6KA2 KD2 (human) = RPS6KA2 KD2 (human) (UniProt Q15349)
CDKL2 (human) = CDKL2 (human) (UniProt Q92772)
CDK5 (human) = CDK5 (human) (UniProt Q00535)
RPS6KA3 KD1 (human) = RPS6KA3 KD1 (human) (UniProt P51812)
INSR (human) = INSR (human) (UniProt P06213)
CSNK1G2 (human) = CSNK1G2 (human) (UniProt P78368)
PAK1 (human) = PAK1 (human) (UniProt Q13153)
STK10 (human) = STK10 (human) (UniProt O94804)
MAP3K9 (human) = MAP3K9 (human) (UniProt P80192)
PAK2 (human) = PAK2 (human) (UniProt Q13177)
CLK4 (human) = CLK4 (human) (UniProt Q9HAZ1)
[2] = test system: KIT (human), P10721 [V559D]
MYLK4 (human) = MYLK4 (human) (UniProt Q86YV6)
FGFR2 (human) = FGFR2 (human) (UniProt P21802)
BMPR1A (human) = BMPR1A (human) (UniProt P36894)
IRAK3 (human) = IRAK3 (human) (UniProt Q9Y616)
CHEK2 (human) = CHEK2 (human) (UniProt O96017)
CAMKK2 (human) = CAMKK2 (human) (UniProt Q96RR4)

Chain of STK32B (human) (Q9NY57 whole entry, looked up): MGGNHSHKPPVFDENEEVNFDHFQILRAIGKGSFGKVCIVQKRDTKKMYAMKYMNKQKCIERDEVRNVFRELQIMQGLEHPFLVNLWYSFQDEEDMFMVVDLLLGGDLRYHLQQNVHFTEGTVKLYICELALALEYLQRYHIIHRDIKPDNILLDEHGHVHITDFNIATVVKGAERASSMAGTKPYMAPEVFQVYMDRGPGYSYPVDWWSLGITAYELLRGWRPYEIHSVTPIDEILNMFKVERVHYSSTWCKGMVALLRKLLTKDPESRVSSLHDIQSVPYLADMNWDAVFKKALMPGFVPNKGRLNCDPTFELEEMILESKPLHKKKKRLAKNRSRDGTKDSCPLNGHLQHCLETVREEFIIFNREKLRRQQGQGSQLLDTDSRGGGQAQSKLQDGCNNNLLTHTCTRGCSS
Chain of NTRK3 (human) (Q16288 whole entry, looked up): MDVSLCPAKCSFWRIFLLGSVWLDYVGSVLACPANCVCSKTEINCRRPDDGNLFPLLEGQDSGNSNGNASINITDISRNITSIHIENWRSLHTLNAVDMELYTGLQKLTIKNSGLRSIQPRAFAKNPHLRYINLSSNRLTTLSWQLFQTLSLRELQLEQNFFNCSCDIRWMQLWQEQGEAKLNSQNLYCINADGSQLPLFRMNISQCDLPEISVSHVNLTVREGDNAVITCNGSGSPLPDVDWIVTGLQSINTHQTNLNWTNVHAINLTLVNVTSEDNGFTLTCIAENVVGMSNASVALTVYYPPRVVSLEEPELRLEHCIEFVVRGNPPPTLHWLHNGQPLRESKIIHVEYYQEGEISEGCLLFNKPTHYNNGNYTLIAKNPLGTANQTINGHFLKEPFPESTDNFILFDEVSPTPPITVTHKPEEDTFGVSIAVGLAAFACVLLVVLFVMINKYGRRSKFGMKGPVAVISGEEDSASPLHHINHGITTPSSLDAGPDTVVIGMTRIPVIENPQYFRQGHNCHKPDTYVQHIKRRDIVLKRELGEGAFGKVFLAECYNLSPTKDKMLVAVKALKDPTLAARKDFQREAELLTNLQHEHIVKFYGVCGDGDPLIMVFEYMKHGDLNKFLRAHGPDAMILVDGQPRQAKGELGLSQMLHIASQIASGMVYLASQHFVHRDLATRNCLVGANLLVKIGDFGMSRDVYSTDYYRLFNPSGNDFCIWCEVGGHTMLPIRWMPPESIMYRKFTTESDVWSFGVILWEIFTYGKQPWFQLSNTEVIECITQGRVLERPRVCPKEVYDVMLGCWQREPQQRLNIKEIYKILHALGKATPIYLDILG
Chain of KDR (human) (P35968 whole entry, looked up): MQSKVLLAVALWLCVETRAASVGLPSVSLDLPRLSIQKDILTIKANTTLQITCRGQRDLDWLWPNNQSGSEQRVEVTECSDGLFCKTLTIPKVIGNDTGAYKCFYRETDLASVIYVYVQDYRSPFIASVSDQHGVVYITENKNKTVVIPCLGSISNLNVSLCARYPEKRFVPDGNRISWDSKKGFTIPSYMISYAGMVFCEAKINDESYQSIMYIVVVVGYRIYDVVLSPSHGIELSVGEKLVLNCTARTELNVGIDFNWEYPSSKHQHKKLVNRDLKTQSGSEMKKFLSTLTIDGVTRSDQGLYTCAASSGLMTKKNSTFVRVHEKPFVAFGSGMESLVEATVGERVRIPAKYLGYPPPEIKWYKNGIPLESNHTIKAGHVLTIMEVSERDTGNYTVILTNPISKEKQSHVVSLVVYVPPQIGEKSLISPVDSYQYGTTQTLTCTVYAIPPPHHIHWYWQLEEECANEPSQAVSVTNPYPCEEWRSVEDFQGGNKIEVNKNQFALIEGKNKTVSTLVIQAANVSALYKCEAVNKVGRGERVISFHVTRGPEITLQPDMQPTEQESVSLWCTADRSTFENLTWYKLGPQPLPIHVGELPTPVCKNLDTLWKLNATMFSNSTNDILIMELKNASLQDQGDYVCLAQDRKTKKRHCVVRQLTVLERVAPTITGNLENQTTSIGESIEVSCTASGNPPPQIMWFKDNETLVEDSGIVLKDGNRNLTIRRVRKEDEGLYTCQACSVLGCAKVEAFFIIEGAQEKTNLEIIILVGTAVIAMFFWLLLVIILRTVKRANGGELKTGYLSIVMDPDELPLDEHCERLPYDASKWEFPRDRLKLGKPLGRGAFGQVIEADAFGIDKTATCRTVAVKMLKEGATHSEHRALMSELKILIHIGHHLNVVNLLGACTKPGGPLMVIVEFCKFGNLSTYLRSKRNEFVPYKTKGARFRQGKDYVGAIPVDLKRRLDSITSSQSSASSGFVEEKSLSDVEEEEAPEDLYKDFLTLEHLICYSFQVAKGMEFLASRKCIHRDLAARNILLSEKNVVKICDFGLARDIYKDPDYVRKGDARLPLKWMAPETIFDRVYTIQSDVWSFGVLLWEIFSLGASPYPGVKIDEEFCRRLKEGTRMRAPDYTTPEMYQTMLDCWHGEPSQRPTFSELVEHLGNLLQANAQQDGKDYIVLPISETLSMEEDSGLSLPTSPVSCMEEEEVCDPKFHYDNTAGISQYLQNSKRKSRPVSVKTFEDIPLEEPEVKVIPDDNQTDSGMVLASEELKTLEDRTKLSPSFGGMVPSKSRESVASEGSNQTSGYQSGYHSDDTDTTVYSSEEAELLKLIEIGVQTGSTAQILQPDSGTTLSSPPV
Chain of MAP4K3 (human) (Q8IVH8 whole entry, looked up): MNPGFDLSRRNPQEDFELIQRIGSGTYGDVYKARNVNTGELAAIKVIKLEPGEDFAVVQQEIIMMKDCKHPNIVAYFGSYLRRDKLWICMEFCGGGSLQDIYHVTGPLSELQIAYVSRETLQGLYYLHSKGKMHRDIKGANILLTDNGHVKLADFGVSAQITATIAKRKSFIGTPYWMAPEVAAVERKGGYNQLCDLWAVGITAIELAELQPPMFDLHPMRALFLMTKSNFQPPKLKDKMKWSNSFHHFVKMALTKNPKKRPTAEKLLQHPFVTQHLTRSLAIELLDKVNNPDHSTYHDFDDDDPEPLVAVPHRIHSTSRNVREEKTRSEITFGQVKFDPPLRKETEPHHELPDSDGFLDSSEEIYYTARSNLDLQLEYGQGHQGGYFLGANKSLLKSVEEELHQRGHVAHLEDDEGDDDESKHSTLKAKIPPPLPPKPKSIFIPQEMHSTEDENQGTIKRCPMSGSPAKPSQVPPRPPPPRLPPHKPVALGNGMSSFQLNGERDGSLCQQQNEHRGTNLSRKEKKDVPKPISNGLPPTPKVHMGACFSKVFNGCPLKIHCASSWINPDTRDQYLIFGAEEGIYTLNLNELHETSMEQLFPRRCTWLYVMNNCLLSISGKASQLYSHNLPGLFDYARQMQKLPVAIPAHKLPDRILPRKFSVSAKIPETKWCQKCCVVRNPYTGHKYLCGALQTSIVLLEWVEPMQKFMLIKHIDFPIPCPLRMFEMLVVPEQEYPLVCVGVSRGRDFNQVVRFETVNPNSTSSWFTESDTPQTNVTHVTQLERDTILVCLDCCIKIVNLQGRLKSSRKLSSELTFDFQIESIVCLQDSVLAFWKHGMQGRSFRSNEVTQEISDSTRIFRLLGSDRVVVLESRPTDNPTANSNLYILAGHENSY
Chain of PIP5K1A (human) (Q99755 whole entry, looked up): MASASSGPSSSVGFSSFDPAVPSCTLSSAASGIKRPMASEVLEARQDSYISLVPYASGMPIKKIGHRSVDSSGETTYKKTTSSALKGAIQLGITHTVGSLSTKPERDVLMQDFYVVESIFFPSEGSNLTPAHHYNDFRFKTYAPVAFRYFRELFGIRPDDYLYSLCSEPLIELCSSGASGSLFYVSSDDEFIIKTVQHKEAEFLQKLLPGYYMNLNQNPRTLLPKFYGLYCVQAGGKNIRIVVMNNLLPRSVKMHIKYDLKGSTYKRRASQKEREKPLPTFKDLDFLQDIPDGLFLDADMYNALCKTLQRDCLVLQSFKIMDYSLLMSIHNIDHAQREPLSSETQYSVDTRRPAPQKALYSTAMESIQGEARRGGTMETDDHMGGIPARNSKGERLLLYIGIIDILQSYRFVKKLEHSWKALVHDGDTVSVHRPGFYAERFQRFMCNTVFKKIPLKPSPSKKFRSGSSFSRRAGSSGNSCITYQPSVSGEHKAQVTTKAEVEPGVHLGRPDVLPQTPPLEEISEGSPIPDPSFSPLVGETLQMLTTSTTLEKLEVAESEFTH
Chain of MAP3K12 (human) (Q12852 whole entry, looked up): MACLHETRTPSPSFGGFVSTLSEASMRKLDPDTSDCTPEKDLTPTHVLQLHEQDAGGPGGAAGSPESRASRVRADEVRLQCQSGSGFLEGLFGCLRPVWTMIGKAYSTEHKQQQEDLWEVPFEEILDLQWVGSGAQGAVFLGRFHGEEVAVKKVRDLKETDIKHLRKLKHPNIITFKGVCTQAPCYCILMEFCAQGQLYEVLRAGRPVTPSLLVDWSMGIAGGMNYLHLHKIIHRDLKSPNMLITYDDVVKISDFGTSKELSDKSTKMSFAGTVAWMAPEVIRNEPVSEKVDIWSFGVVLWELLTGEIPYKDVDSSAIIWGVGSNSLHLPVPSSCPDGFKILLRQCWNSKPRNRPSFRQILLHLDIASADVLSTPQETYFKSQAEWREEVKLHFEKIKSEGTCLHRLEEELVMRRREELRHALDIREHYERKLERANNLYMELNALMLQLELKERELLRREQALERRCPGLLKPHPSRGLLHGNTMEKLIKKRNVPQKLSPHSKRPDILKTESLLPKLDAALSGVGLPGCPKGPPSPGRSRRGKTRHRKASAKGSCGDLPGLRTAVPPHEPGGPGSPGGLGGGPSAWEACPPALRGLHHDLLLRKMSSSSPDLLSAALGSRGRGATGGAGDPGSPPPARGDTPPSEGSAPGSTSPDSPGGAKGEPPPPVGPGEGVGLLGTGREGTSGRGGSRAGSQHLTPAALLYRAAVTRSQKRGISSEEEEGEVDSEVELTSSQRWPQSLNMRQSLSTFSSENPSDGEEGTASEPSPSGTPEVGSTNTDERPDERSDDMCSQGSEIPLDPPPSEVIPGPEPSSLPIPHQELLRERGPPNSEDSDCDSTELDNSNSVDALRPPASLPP

SMILES: O=C(NC1CC1)c1cccc(-c2ccc3c(NC(=O)C4CC4)n[nH]c3c2)c1
- kinase still bound, per cent of control (STK32B (human)): 100%
- kinase still bound, per cent of control (MAPK6 (human)): 78%
- kinase still bound, per cent of control [1]: 32%
- kinase still bound, per cent of control (RPS6KA4 KD2 (human)): 100%
- kinase still bound, per cent of control (NTRK3 (human)): 44%
- kinase still bound, per cent of control (TESK1 (human)): 100%
- kinase still bound, per cent of control (PIP5K1A (human)): 28%
- kinase still bound, per cent of control (RIPK4 (human)): 84%
- kinase still bound, per cent of control (MAP2K4 (human)): 66%
- kinase still bound, per cent of control (EPHB3 (human)): 100%
- kinase still bound, per cent of control (FGFR4 (human)): 94%
- kinase still bound, per cent of control (ROCK2 (human)): 53%
- kinase still bound, per cent of control (AURKA (human)): 86%
- kinase still bound, per cent of control (CSK (human)): 84%
- kinase still bound, per cent of control (MAP4K4 (human)): 84%
- kinase still bound, per cent of control (MYO3B (human)): 93%
- kinase still bound, per cent of control (PDGFRA (human)): 29%
- kinase still bound, per cent of control (RPS6KA5 KD2 (human)): 100%
- kinase still bound, per cent of control (MAP4K3 (human)): 60%
- kinase still bound, per cent of control (KDR (human)): 93%
- kinase still bound, per cent of control (PRKCQ (human)): 100%
- kinase still bound, per cent of control (MAP3K12 (human)): 30%
- kinase still bound, per cent of control (RPS6KA2 KD2 (human)): 82%
- kinase still bound, per cent of control (CDKL2 (human)): 8.6%
- kinase still bound, per cent of control (CDK5 (human)): 60%
- kinase still bound, per cent of control (RPS6KA3 KD1 (human)): 86%
- kinase still bound, per cent of control (INSR (human)): 78%
- kinase still bound, per cent of control (CSNK1G2 (human)): 94%
- kinase still bound, per cent of control (PAK1 (human)): 70%
- kinase still bound, per cent of control (STK10 (human)): 57%
- kinase still bound, per cent of control (MAP3K9 (human)): 66%
- kinase still bound, per cent of control (PAK2 (human)): 69%
- kinase still bound, per cent of control (CLK4 (human)): 100%
- kinase still bound, per cent of control [2]: 4.8%
- kinase still bound, per cent of control (MYLK4 (human)): 42%
- kinase still bound, per cent of control (FGFR2 (human)): 100%
- kinase still bound, per cent of control (BMPR1A (human)): 76%
- kinase still bound, per cent of control (IRAK3 (human)): 69%
- kinase still bound, per cent of control (CHEK2 (human)): 100%
- kinase still bound, per cent of control (CAMKK2 (human)): 94%

SMILES: CCN1CCN(Cc2ccc(Nc3ncc4c(n3)N(C)c3ccccc3C(=O)N4C)cc2C(F)(F)F)CC1
- kinase still bound, per cent of control (STK32B (human)): 100%
- kinase still bound, per cent of control (MAPK6 (human)): 20%
- kinase still bound, per cent of control [1]: 13%
- kinase still bound, per cent of control (RPS6KA4 KD2 (human)): 100%
- kinase still bound, per cent of control (NTRK3 (human)): 100%
- kinase still bound, per cent of control (TESK1 (human)): 73%
- kinase still bound, per cent of control (PIP5K1A (human)): 5%
- kinase still bound, per cent of control (RIPK4 (human)): 12%
- kinase still bound, per cent of control (MAP2K4 (human)): 100%
- kinase still bound, per cent of control (EPHB3 (human)): 80%
- kinase still bound, per cent of control (FGFR4 (human)): 36%
- kinase still bound, per cent of control (ROCK2 (human)): 100%
- kinase still bound, per cent of control (AURKA (human)): 0.4%
- kinase still bound, per cent of control (CSK (human)): 93%
- kinase still bound, per cent of control (MAP4K4 (human)): 81%
- kinase still bound, per cent of control (MYO3B (human)): 100%
- kinase still bound, per cent of control (PDGFRA (human)): 100%
- kinase still bound, per cent of control (RPS6KA5 KD2 (human)): 100%
- kinase still bound, per cent of control (MAP4K3 (human)): 11%
- kinase still bound, per cent of control (KDR (human)): 100%
- kinase still bound, per cent of control (PRKCQ (human)): 100%
- kinase still bound, per cent of control (MAP3K12 (human)): 49%
- kinase still bound, per cent of control (RPS6KA2 KD2 (human)): 32%
- kinase still bound, per cent of control (CDKL2 (human)): 80%
- kinase still bound, per cent of control (CDK5 (human)): 84%
- kinase still bound, per cent of control (RPS6KA3 KD1 (human)): 28%
- kinase still bound, per cent of control (INSR (human)): 92%
- kinase still bound, per cent of control (CSNK1G2 (human)): 8.9%
- kinase still bound, per cent of control (PAK1 (human)): 86%
- kinase still bound, per cent of control (STK10 (human)): 28%
- kinase still bound, per cent of control (MAP3K9 (human)): 58%
- kinase still bound, per cent of control (PAK2 (human)): 78%
- kinase still bound, per cent of control (CLK4 (human)): 100%
- kinase still bound, per cent of control [2]: 56%
- kinase still bound, per cent of control (MYLK4 (human)): 99%
- kinase still bound, per cent of control (FGFR2 (human)): 50%
- kinase still bound, per cent of control (BMPR1A (human)): 8.2%
- kinase still bound, per cent of control (IRAK3 (human)): 69%
- kinase still bound, per cent of control (CHEK2 (human)): 100%
- kinase still bound, per cent of control (CAMKK2 (human)): 47%
